Laboratory results reported in ChEMBL document CHEMBL1201862, “PubChem BioAssay data set” (2004).
The source made the active and inactive calls.

Columns and labels:
Vero [1] = assay: West Nile virus cytopathic effect inhibition, cell-based (AID 2419); format: functional; conditions: Chlorocebus sabaeus
Vero [2] = assay: Vero E6 cell cytotoxicity, SAR follow-up, cytotoxicity control for West Nile virus antiviral project, synthesized analogs (AID 2244); format: functional; conditions: Chlorocebus sabaeus
Vero [3] = assay: cytotoxicity of synthesized analogs in Vero 76, SAR follow-up, cytotoxicity control for West Nile virus antiviral project, Vero 76 cells (AID 2414); format: functional; conditions: Chlorocebus sabaeus
Vero [4] = assay: West Nile virus CPE inhibition, SAR follow-up, cell-based, synthesized analogs (AID 2238); format: functional; conditions: Chlorocebus sabaeus
Vero [5] = assay: West Nile virus antiviral activity, cell-based, CPE readout (AID 1621); format: functional; conditions: Chlorocebus sabaeus
[6] = A Cell Based Assay for the Identification of Probe candidate Compounds with Anti- Venezuelan Equine Encephalitis virus. [Related pubchem assays: 2409, 2419, 1621, 2238, 2405, 2024, 2065, 2402, 2414, 1635, 1650, 2244 ]; format: functional
Vero [7] = assay: cytotoxicity of synthesized analogs in Vero cells, SAR follow-up, cytotoxicity control for West Nile virus antiviral project, cell-based, set II (AID 2402); format: functional; conditions: Chlorocebus sabaeus
[8] = target: Delta-type opioid receptor (Homo sapiens, UniProt P41143); assay: SAR Analysis of Antagonists of the DOR Receptor using an Image-Based Assay - Set 3. [Related pubchem assays (depositor defined):AID1777, AID1785]; format: functional;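 also: U2OS cells expressing DOR1 and beta-arrestin GFP stimulated with 100 nM SNC80; imaging of GFP-tagged beta-arrestin moving into spots after receptor activation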
Mu-type opioid receptor = Mu-type opioid receptor (Homo sapiens, UniProt P35372); assay: SAR Analysis of Antagonists of the MOR Receptor using an Image-Based Assay - Set 3. [Related pubchem assays (depositor defined):AID1777, AID1785, AID1786, AID1966, AID2133, AID2136, AID2284, AID2285, AID2420]; format: functional
[9] = target: T1, Kappa-type opioid receptor (Homo sapiens, UniProt P41145); assay: SAR analysis of Antagonists of the Kappa Opioid Receptor (KOR) using an Image-Based Assay - Set 4. [Related pubchem assays (depositor defined):AID1777, AID1785]; format: functional
[10] = target: T1, Kappa-type opioid receptor; assay: SAR analysis of small molecule antagonists of the kappa opioid receptor via a luminescent beta-arrestin assay - Set 6. [Related pubchem assays (depositor defined):AID1777, AID1778, AID1785, AID1786, AID1966, AID2133, AID2136, AID2285]; format: functional
[11] = target: T1, Kappa-type opioid receptor; assay: SAR analysis of small molecule antagonists of the kappa opioid receptor via a luminescent beta-arrestin assay - Set 4. [Related pubchem assays (depositor defined):AID1777, AID1778, AID1785, AID1786, AID1966, AID2133, AID2136, AID2285]; format: functional
[12] = target: T2, Apoptotic protease-activating factor 1 (Homo sapiens, UniProt O14727); format: functional
T2 sequence (O14727 whole entry): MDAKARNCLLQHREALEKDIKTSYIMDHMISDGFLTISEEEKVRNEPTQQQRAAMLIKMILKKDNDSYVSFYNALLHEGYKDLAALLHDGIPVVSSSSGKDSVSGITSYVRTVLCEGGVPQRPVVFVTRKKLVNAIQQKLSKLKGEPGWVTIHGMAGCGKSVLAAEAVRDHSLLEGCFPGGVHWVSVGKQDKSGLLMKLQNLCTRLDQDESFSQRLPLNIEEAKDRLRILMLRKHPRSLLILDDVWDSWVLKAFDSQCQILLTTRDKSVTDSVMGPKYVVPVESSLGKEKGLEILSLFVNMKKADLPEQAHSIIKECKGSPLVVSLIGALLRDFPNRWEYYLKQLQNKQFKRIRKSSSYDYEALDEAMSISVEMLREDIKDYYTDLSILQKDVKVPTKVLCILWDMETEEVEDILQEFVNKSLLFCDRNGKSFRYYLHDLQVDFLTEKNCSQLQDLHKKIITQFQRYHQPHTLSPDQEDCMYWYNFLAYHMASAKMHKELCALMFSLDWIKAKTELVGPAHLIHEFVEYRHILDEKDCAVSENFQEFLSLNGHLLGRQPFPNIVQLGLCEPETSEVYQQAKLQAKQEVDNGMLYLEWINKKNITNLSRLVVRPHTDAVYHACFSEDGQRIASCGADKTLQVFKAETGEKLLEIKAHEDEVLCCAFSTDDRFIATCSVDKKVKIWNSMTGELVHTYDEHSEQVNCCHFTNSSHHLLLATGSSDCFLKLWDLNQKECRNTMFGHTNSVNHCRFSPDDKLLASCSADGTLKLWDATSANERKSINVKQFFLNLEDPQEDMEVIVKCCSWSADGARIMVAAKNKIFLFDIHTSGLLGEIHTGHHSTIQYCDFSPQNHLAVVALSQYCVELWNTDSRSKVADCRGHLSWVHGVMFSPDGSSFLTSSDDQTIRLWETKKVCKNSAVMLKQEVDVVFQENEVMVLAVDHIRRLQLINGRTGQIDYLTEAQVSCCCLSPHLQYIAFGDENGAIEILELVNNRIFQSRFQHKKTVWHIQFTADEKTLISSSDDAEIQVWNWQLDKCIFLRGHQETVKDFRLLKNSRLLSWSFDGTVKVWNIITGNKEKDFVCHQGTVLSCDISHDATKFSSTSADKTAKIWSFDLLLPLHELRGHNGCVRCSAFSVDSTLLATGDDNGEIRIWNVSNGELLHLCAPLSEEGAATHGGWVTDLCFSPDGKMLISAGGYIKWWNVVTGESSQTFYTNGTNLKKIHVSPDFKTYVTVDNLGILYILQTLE

Nonstructural protein 1 = Nonstructural protein 1 (Influenza A virus, UniProt Q194T2); format: functional, Influenza A virus (A/California/07/2009(H1N1))
[13] = THP-1 cell cytotoxicity, dose response, cytotoxicity control for non-replicating M. tuberculosis project (AID 489025); format: functional
Protein RecA = target: T3, Protein RecA (Mycobacterium tuberculosis, UniProt P9WHJ3); assay: Fluorescence Cell-Free Homogeneous Dose Retest to Identify Inhibitors of RecA-Intein Splicing Activity. [Related pubchem assays (depositor defined):AID2097, AID2223, AID489010, AID492950]; format: functional
T3 sequence (P9WHJ3 whole entry): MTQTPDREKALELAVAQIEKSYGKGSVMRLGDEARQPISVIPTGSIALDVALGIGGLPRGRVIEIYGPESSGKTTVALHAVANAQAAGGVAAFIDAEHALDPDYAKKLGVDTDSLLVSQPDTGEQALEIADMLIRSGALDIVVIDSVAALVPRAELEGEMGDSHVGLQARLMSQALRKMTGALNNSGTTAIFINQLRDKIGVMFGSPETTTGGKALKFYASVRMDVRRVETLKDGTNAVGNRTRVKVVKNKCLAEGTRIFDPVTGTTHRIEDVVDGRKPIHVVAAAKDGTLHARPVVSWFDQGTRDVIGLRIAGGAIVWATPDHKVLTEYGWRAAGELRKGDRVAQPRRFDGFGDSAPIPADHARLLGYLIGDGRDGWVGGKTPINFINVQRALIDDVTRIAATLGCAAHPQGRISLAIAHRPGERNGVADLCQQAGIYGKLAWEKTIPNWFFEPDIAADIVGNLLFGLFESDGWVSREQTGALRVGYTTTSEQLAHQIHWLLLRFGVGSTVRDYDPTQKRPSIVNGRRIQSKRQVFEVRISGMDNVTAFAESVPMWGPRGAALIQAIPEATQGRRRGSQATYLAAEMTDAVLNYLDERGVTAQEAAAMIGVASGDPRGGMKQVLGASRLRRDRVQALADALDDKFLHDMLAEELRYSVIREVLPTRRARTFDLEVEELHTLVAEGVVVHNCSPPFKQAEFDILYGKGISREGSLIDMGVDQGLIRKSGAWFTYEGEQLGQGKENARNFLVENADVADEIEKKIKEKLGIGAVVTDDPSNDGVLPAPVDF

[14] = target: T4, Ubiquitin-conjugating enzyme E2 N (Homo sapiens, UniProt P61088); format: functional;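 also: Dose-response confirmation in a TR-FRET assay detecting UBC13-driven polyubiquitin chain formation, inhibition measured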
T4 sequence (P61088 whole entry): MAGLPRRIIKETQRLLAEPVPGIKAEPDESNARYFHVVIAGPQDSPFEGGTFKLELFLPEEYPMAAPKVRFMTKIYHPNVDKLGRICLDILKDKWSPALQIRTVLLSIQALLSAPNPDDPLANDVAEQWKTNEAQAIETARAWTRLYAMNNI

[15] = HepG2 cell cytotoxicity, dose response, cytotoxicity control for non-replicating M. tuberculosis project (AID 489018); format: functional; conditions: Mycobacterium tuberculosis
cells = format: functional
[16] = target: T5, Replicative DNA helicase DnaB (Mycobacterium tuberculosis, UniProt P9WMR3); assay: DnaB intein splicing inhibitors, dose response, biochemical, cell-free fluorescence (AID 449749); format: functional
T5 sequence (P9WMR3 whole entry): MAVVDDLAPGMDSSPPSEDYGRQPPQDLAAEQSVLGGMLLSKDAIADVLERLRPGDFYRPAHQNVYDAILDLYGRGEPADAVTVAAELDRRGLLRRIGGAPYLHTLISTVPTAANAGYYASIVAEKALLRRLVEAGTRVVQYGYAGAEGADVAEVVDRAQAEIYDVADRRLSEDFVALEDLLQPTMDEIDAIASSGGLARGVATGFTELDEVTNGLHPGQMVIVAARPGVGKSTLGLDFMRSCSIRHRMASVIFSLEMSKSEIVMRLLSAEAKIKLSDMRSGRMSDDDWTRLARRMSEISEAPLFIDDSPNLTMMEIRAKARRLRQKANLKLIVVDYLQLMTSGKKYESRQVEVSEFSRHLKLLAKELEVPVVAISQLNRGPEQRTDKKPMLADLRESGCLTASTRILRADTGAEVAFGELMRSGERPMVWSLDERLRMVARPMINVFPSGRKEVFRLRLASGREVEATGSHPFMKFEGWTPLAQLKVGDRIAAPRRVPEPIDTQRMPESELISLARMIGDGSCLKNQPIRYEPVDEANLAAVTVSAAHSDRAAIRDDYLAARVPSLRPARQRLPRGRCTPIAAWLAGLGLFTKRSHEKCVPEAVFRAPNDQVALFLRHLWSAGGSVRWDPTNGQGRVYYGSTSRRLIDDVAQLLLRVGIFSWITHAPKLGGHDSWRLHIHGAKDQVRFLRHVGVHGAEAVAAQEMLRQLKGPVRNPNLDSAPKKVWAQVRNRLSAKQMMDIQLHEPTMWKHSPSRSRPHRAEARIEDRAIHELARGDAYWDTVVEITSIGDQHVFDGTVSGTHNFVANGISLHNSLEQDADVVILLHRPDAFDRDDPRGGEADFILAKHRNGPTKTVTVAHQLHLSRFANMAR

[17] = Vero E6 cell cytotoxicity, dose response, cytotoxicity control for non-replicating M. tuberculosis project, secondary assay (AID 492998); format: functional, VeroE6; conditions: Vero C1008
Streptococcus = assay: Group A Streptococcus viability loss, dose response, counter-screen for streptokinase expression inhibitor project, luminescence, BacTiterGlo (AID 1915); format: functional, organism-based;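 also: potency for reduction of bacterial viability or growth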
[18] = test system: Streptococcus sp. 'group A'; assay: growth inhibition of control SK(-) GAS strain, dose response, counter-screen for streptokinase expression inhibitor project, luminescence, kanamycin, BacTiterGlo, confirmation (AID 1900); format: functional, organism-based
[19] = target: Voltage-dependent T-type calcium channel subunit alpha-1H (Homo sapiens, UniProt O95180); assay: Cav3.2 T-type channel inhibitors, cell-based, synthetic library set 1, calcium flux (AID 493022); format: functional
SUMO-activating enzyme [20] = target: T6, SUMO-activating enzyme (Homo sapiens, UniProt Q9UBT2); assay: inhibitors of in vitro SUMOylation cascade, primary screen, biochemical, HTRF, uHTS (AID 2006); format: protein-complex assay
SUMO-activating enzyme [21] = target: T6, SUMO-activating enzyme; assay: SUMOylation inhibitor hit validation, confirmation, SUMOylation inhibitor project, biochemical, AlphaScreen (AID 2018); format: functional

T1 sequence (P41145 whole entry): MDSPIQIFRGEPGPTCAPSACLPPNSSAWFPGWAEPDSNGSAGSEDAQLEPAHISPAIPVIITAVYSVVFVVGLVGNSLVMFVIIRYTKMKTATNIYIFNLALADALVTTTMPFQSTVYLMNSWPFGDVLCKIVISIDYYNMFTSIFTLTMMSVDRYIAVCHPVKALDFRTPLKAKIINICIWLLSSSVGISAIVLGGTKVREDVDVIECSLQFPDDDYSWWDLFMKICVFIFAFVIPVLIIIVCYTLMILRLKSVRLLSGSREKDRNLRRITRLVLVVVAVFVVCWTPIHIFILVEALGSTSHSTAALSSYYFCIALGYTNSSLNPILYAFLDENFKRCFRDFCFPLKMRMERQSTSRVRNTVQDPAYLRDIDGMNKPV
T6 sequence (Q9UBE0 whole entry): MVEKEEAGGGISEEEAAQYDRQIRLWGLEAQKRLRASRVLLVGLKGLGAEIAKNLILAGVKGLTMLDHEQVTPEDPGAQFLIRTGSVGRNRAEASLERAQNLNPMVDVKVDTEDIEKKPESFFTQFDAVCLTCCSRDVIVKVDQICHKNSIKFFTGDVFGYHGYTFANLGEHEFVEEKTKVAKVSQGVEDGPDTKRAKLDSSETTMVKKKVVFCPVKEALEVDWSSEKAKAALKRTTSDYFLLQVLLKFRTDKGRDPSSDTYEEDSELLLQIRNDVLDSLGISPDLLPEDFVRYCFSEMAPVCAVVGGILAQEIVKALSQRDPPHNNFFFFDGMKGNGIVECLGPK
T6 sequence (Q9UBT2 whole entry): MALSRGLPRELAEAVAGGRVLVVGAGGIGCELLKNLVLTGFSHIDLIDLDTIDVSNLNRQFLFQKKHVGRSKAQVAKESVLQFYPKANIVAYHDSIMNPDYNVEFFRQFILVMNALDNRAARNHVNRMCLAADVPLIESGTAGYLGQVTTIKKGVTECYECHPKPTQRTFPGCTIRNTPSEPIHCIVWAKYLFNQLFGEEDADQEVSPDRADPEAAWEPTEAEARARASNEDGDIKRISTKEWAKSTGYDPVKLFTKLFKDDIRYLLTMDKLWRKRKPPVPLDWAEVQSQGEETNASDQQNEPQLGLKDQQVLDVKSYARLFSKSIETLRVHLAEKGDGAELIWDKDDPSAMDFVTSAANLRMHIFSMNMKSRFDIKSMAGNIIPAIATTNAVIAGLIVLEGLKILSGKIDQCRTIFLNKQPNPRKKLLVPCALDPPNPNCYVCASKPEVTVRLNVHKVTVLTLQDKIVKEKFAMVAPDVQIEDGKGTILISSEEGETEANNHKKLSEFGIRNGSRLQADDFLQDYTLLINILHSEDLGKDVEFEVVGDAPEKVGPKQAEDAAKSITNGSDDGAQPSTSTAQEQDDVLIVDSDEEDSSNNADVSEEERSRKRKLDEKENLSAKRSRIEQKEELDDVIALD
Sequence of Mu-type opioid receptor (P35372 whole entry): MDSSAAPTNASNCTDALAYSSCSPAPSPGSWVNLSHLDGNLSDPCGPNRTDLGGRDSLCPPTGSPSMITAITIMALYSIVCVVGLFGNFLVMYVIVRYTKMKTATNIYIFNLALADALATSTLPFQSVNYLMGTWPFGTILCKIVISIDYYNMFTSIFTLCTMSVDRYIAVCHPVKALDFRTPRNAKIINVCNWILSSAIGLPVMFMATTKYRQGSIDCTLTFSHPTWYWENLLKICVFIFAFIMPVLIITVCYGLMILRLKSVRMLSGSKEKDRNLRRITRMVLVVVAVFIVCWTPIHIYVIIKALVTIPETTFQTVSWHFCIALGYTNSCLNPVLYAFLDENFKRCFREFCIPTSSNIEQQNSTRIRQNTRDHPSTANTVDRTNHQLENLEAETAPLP
Sequence of Delta-type opioid receptor (P41143 whole entry): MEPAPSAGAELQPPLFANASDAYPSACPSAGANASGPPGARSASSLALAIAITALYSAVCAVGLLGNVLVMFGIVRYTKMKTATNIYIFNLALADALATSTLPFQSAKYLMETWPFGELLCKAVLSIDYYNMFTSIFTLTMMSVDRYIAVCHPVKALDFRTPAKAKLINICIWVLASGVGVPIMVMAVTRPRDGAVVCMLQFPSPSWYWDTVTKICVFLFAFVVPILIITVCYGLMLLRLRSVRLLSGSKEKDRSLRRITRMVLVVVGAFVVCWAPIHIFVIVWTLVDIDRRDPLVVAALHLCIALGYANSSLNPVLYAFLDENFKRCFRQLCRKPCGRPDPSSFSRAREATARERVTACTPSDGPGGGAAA
Sequence of Voltage-dependent T-type calcium channel subunit alpha-1H (O95180 whole entry): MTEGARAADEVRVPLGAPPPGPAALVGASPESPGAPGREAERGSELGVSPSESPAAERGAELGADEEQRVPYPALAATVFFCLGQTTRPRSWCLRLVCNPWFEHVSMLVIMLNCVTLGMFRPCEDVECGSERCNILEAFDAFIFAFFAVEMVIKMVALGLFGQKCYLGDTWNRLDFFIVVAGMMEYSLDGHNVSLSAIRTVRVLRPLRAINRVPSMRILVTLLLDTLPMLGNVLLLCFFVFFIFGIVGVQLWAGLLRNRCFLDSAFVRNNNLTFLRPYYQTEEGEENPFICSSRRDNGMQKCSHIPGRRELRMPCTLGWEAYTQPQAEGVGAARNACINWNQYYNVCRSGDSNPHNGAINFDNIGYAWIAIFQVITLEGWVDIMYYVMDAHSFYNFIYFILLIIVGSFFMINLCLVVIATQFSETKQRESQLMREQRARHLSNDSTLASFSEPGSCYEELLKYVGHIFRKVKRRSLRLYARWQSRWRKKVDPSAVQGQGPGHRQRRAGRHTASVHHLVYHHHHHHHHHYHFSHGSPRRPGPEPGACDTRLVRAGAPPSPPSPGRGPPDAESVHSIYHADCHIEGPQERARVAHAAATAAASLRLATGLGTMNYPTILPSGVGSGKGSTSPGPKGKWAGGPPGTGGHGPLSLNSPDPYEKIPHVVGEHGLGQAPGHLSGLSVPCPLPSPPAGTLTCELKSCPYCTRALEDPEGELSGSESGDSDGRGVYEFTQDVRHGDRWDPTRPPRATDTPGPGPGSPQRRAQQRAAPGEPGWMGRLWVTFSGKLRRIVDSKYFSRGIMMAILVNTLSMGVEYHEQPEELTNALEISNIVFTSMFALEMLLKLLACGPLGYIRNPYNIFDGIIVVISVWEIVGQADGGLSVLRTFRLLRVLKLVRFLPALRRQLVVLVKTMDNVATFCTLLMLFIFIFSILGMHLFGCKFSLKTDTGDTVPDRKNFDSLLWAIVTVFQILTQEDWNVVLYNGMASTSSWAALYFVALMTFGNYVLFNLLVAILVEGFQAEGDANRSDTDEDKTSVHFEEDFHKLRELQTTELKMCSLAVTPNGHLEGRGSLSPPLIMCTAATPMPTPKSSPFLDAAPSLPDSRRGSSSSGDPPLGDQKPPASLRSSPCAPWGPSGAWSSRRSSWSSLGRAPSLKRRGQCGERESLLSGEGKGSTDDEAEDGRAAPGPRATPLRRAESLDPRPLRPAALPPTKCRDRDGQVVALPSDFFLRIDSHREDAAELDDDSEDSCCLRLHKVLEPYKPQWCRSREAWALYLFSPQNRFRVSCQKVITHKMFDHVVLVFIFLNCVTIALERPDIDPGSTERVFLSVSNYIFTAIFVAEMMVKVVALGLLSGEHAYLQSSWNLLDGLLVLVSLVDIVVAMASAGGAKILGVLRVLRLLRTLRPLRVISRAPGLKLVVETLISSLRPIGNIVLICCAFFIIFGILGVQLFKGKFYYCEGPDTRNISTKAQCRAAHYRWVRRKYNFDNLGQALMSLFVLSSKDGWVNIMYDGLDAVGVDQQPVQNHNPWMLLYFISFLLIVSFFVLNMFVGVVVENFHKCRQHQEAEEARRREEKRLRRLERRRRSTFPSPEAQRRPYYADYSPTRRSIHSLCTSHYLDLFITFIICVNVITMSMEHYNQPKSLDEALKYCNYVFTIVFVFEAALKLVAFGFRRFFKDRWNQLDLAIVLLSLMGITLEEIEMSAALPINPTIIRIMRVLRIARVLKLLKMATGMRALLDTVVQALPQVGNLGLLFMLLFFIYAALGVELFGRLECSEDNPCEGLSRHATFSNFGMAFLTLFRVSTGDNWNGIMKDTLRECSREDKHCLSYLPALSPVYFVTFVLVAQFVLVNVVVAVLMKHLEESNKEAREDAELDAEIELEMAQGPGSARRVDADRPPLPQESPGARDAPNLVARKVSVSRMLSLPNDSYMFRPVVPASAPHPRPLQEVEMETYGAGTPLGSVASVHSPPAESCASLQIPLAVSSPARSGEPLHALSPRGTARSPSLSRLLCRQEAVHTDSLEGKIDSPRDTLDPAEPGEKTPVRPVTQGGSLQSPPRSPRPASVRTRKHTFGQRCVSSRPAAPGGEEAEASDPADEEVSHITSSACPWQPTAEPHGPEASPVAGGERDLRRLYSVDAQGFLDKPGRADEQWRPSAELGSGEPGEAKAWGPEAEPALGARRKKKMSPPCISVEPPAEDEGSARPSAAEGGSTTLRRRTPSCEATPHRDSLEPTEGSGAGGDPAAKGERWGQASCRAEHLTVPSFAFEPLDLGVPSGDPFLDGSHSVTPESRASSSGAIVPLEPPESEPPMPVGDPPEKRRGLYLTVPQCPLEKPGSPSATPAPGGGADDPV
Sequence of Nonstructural protein 1 (Q194T2 whole entry): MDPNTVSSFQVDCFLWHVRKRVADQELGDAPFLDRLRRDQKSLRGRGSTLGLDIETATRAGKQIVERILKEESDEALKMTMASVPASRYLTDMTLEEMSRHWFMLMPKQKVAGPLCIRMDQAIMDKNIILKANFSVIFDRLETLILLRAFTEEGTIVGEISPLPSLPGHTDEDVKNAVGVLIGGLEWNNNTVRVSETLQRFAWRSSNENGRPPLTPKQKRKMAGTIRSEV

CCOC(=O)C1(Cc2ccccc2C(F)(F)F)CCN(C2CCN(C(C)C)CC2)CC1
IC50 (Vero [1]): > 50 µM (active)
CC50 (Vero [2]): 21.6 µM (active)
CC50 (Vero [3]): > 133 µM (active)
IC50 (Vero [4]): 36.5 µM (active)
IC50 (Vero [5]): 18.6 µM (active)
IC50 [6]: 6.36 µM (active)
CC50 (Vero [7]): 31.5 µM (active)

Cc1ccc(S(=O)(=O)NCc2ccc(C(=O)NCCN3CCN(c4ccccc4)CC3)cc2)cc1
IC50 [8]: > 32 µM (inactive)
IC50 (Mu-type opioid receptor): > 32 µM (inactive)
IC50 [9]: > 32 µM (inactive)
IC50 [10]: > 20 µM (inactive)
IC50 [11]: > 20 µM (inactive)

CCOC(=O)C1=C(c2ccccc2)N=C(N)NC1c1ccc(OCc2ccc(C(=O)OC)cc2)cc1 (stereo unspecified)
IC50 [12]: 26.8 µM (active)
IC50 (Nonstructural protein 1): 62.3 µM (active)
CC50 [13]: 11.8 µM (active)
EC50 (Protein RecA): 11.8 µM (active)
IC50 [14]: > 20 µM (inactive)
CC50 [15]: > 20 µM (active)
IC50 (cells): 9.88 µM (active)
AC50 [16]: 15.6 µM (active)
CC50 [17]: 18.2 µM (active)

O=C(COc1ccc(Cl)cc1)Nc1nnc(-c2ccc3c(c2)CCCC3)o1
EC50 (Streptococcus): 1.83 µM (active)
EC50 [18]: 0.489 µM (active)
EC50 [19]: 2.8 µM (active)
IC50 (SUMO-activating enzyme [20]): 48.2 µM (active)
IC50 (SUMO-activating enzyme [21]): > 100 µM (inactive)
